Data taken from patent publication US20240109848A1, “PROCESS FOR THE PREPARATION OF IMIDAZOBENZODIAZEPINES” (ODH IP Corp., priority 2022, published 2024).

Columns and labels:
[1] = pH titration of the carboxylate with mother liquor analysis (solubility versus pH); assay type: physicochemical; settings: pH values below 1, methanol/KOH saponification mixture titrated with acid
Description: Saponification of midazolam ethyl ester to the carboxylic acid was performed both in batch and flow, but poor solubility limited the throughput of a continuous manufacturing approach. Therefore, the reaction was run as a batch in a methanol/KOH solution. Much of the R&D on this process step revolved around the reactive crystallization of the carboxylic acid product. […] An initial screen was performed by titrating a batch of the carboxylate and analyzing the mother liquor at decreasing pH values to determine the pH value with the highest yield (FIG. 10).
The titration experiment determined that pH 5.5-6.0 would provide the highest yielding crystallization. At pH values lower than this, the solubility of the product increases again until it is fully soluble at pH values below 1. […] This was an attractive development as the ring open form had been previously reported to provide a purer decarboxylation. The ring quickly closes in neutral solvent, and the diastereomeric methylene resonances appear clearly between 4-6 ppm. […] To test this hypothesis, we performed […] batch reactions and crystallization at pH 1, and 5.5. The solid products were characterized by thermogravimetric analysis and ^1H NMR spectroscopy (FIGS. 11A and 11B).

[2] = for weight remaining of starting sample (TGA): heated at 200° C. for 50 minutes
Description: To test the stable ion-pair hypothesis, TGA of PTSA, midazolam, and their combined salt pair were heated at 200° C. for 50 minutes and their decomposition rates were compared (FIG. 13).

[3] = LC-MS analysis of the TGA samples for thermal isomerization to isomidazolam; assay type: physicochemical; settings: LC-MS of sample after TGA at 200° C. for 50 minutes

Compound | solubility of the product [1] | weight remaining of starting sample (TGA) [2] | isomidazolam formed in TGA sample [3] | weight remaining (TGA) ([2]; heated at 200° C., within 40 minutes of heating)
Cc1nc(C(=O)O)c2n1-c1ccc(Cl)cc1C(c1ccccc1F)=NC2 [Midazolam carboxylic acid, 8-chloro-6-(2-fluorophenyl)-1-methyl-4H-imidazo[1,5-a][1,4]benzodiazopine-3-carboxylic acid] | fully soluble | – | – | –
Cc1ccc(S(=O)(=O)O)cc1.Cc1ncc2n1-c1ccc(Cl)cc1C(c1ccccc1F)=NC2 [midazolam:PTSA pair] | – | 90 weight % | 1 % LCAP | –
8-chloro-6-(2-fluorophenyl)-1-methyl-4H-imidazo[1,5-a][1,4]benzodiazopine [Midazolam, reference compound] | – | 65 weight % | 12 % LCAP | –
Cc1ccc(S(=O)(=O)O)cc1 [PTSA, para-toluenesulfonic acid] | – | – | – | ~10 weight %
